Experimental findings from patent US8450320B2, “Pyrrolopyrazinone inhibitors of kinases” (AbbVie Inc., priority 2010, dated 2013) are described below.

Some results are limits rather than exact numbers.

The target of this test is T1, Cdc7 (BEV coexpressed huCDC7/DBF4) (Homo sapiens, UniProt O00311).
T1 construct: made in house; host or cells: BEV (baculovirus expression vector)
The test is described as follows: Cdc7 enzyme inhibition assay ([33P]-ATP, biotinylated peptide substrate, FlashPlate). Format: biochemical. The note with it: Ki generated from IC50 assuming ATP-competitive inhibition; 1 μM ATP, apparent ATP Km 0.7 μM. As for the experimental part:
This example describes the assays that may be used to identify compounds having kinase activity.
Cdc7 (BEV coexpressed huCDC7/DBF4) is prepared internally. Cdc7 assays are conducted as follows with final concentrations as listed. In 384-well v-bottom polypropylene plates, 6 μL compound (2% DMSO), is mixed with 6 μL of Cdc7 (2 ug/mL), and Jerini peptide substrate A-All (biotin-C6linker-TPSDSLIYDDGLS) (2 μM), followed by immediate initiation with 6 μL […] (1 μM, 20 mCi/μmol) using a reaction buffer comprising 25 mM HEPES, pH 7.5, 1 mM DTT, 10 mM MgCl2, 100 μM Na3VO4, 0.075 mg/ml Triton X-100. Reactions are quenched after 1 hr by the addition of 90 μL stop buffer (50 mM EDTA, 2M NaCl). 85 μL of the stopped reactions are transferred to 384-well streptavidin-coated plates (FlashPlate Plus, Perkin Elmer), incubated 30 minutes at room temperature and washed 3 times with 0.05% Tween-20/PBS using an ELX-405 automated plate washer (BioTek), and counted on a TopCount Scintillation Plate Reader (Packard). IC50 values are determined via non-linear regression fitting of enzyme inhibition data and corresponding Ki values are generated assuming ATP-competitive (equilibrium) inhibition and using the experimentally determined apparent ATP Km of 0.7 μM (as determined using the above assay condition, but varying ATP).
Table 1 depicts enzyme inhibition data (Ki) for exemplary compounds. In Table 1, “A” represents a Ki of less than 10 nM, “B” represents a Ki of between 10 nM and 100 nM, and “C” represents a Ki of greater than 100 nM.

T1 sequence (O00311 whole entry): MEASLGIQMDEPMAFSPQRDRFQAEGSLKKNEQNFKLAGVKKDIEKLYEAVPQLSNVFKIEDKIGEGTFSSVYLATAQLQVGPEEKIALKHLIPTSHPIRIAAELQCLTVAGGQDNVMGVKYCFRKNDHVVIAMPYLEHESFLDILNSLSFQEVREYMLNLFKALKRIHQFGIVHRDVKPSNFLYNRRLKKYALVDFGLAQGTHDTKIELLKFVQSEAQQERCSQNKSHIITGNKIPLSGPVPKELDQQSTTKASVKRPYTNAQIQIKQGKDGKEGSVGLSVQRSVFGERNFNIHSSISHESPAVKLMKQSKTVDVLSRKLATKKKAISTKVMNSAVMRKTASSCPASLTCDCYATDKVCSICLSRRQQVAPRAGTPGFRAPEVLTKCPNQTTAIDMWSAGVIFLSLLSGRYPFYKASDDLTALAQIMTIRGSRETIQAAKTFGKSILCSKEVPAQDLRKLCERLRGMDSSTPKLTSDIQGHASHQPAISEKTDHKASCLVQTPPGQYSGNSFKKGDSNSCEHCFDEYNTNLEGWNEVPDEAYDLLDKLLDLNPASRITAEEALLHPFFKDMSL
T1 sequence (Q9UBU7 whole entry partner): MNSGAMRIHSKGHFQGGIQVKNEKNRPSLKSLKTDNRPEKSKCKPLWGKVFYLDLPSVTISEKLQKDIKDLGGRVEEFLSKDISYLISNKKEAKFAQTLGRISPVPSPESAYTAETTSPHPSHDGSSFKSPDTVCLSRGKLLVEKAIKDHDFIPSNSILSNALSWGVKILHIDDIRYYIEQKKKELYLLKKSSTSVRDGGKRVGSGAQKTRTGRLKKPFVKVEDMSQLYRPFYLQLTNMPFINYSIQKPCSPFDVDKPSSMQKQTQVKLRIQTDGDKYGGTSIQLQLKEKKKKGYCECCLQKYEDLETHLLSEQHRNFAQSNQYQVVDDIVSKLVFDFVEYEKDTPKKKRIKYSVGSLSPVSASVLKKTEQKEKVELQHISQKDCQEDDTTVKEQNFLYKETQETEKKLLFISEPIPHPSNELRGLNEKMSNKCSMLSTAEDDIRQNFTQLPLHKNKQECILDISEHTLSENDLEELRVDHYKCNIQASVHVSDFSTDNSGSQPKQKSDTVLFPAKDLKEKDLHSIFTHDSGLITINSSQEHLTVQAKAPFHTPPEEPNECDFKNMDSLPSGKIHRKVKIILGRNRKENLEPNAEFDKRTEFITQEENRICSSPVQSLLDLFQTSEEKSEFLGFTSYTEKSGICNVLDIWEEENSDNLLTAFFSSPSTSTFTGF

On to `CS(=O)(=O)Nc1ccc(C(=O)c2c[nH]c(=O)c3cc(-c4c[nH]c5ncccc45)cn23)cc1` [Example 43, N-(4-{[1-oxo-7-(1H-pyrrolo[2,3-b]pyridin-3-yl)-1,2-dihydropyrrolo[1,2-a]pyrazin-4-yl]carbonyl}phenyl)methanesulfonamide], for which the Ki is under 10 nM.
In the case of `CCOC(=O)c1cccc(Cc2c[nH]c(=O)c3cc(-c4ccncc4)cn23)c1` [Example 4, ethyl 3-{[1-oxo-7-(pyridin-4-yl)-1,2-dihydropyrrolo[1,2-a]pyrazin-4-yl]methyl}benzoate] it was 10 to 100 nM; in that of `O=c1[nH]cc(Cc2cccc([N+](=O)[O-])c2)n2cc(-c3c[nH]c4ncccc34)cc12` [Example 14, 4-(3-nitrobenzyl)-7-(1H-pyrrolo[2,3-b]pyridin-3-yl)pyrrolo[1,2-a]pyrazin-1(2H)-one], under 10 nM; in that of `CS(=O)(=O)NCc1ccc(Cc2c[nH]c(=O)c3cc(-c4c[nH]c5ncccc45)cn23)cc1` [Example 31, N-(4-{[1-oxo-7-(1H-pyrrolo[2,3-b]pyridin-3-yl)-1,2-dihydropyrrolo[1,2-a]pyrazin-4-yl]methyl}benzyl)methanesulfonamide], under 10 nM.
The value for `CCOC(=O)c1cccc(Cc2c[nH]c(=O)c3cc(-c4c[nH]c5ncccc45)cn23)c1` [Example 6, ethyl 3-{[1-oxo-7-(1H-pyrrolo[2,3-b]pyridin-3-yl)-1,2-dihydropyrrolo[1,2-a]pyrazin-4-yl]methyl}benzoate] was under 10 nM; that for `CCOC(=O)c1cccc(Cc2c[nH]c(=O)c3cc(-c4cccnc4)cn23)c1` [Example 8, ethyl 3-{[1-oxo-7-(pyridin-3-yl)-1,2-dihydropyrrolo[1,2-a]pyrazin-4-yl]methyl}benzoate] was over 100 nM; that for `CCC(CC)Nc1ccc(Cc2c[nH]c(=O)c3cc(-c4c[nH]c5ncccc45)cn23)cc1` [Example 35, 4-[4-(pentan-3-ylamino)benzyl]-7-(1H-pyrrolo[2,3-b]pyridin-3-yl)pyrrolo[1,2-a]pyrazin-1(2H)-one] was 10 to 100 nM.
The value for `CS(=O)(=O)Nc1cccc(Cc2c[nH]c(=O)c3cc(-c4c[nH]c5ncccc45)cn23)c1` [Example 21, N-(3-{[1-oxo-7-(1H-pyrrolo[2,3-b]pyridin-3-yl)-1,2-dihydropyrrolo[1,2-a]pyrazin-4-yl]methyl}phenyl)methanesulfonamide] was under 10 nM; that for `CN1CCCC(C(=O)Nc2ccc(Cc3c[nH]c(=O)c4cc(-c5c[nH]c6ncccc56)cn34)cc2)C1` (stereo not shown) [Example 40, 1-methyl-N-(4-{[1-oxo-7-(1H-pyrrolo[2,3-b]pyridin-3-yl)-1,2-dihydropyrrolo[1,2-a]pyrazin-4-yl]methyl}phenyl)piperidine-3-carboxamide] was under 10 nM.
In the case of `O=C(Nc1ccc(Cc2c[nH]c(=O)c3cc(-c4c[nH]c5ncccc45)cn23)cc1)c1cccnc1` [Example 28, N-(4-{[1-oxo-7-(1H-pyrrolo[2,3-b]pyridin-3-yl)-1,2-dihydropyrrolo[1,2-a]pyrazin-4-yl]methyl}phenyl)nicotinamide], the Ki was under 10 nM.
The value for `O=C(Nc1ccc(Cc2c[nH]c(=O)c3cc(-c4c[nH]c5ncccc45)cn23)cc1)C1CC1` [Example 20, N-(4-{[1-oxo-7-(1H-pyrrolo[2,3-b]pyridin-3-yl)-1,2-dihydropyrrolo[1,2-a]pyrazin-4-yl]methyl}phenyl)cyclopropanecarboxamide] was under 10 nM; that for `O=C(Nc1ccc(Cc2c[nH]c(=O)c3cc(-c4c[nH]c5ncccc45)cn23)cc1)c1ccccc1` [Example 42, N-(4-{[1-oxo-7-(1H-pyrrolo[2,3-b]pyridin-3-yl)-1,2-dihydropyrrolo[1,2-a]pyrazin-4-yl]methyl}phenyl)benzamide] was under 10 nM.
In the case of `O=c1[nH]cc(Cc2ccc(NCc3ccccn3)cc2)n2cc(-c3c[nH]c4ncccc34)cc12` [Example 24, 4-{4-[(pyridin-2-ylmethyl)amino]benzyl}-7-(1H-pyrrolo[2,3-b]pyridin-3-yl)pyrrolo[1,2-a]pyrazin-1(2H)-one] it was under 10 nM; in that of `CN(C)Cc1ccc(Cc2c[nH]c(=O)c3cc(-c4c[nH]c5ncccc45)cn23)cc1` [Example 36, 4-{4-[(dimethylamino)methyl]benzyl}-7-(1H-pyrrolo[2,3-b]pyridin-3-yl)pyrrolo[1,2-a]pyrazin-1(2H)-one], under 10 nM; in that of `Nc1ccc(Cc2c[nH]c(=O)c3cc(-c4c[nH]c5ncccc45)cn23)cc1` [Example 23, 4-(4-aminobenzyl)-7-(1H-pyrrolo[2,3-b]pyridin-3-yl)pyrrolo[1,2-a]pyrazin-1(2H)-one], under 10 nM.
The value for `O=C(O)c1cccc(Cc2c[nH]c(=O)c3cc(-c4c[nH]c5nccnc45)cn23)c1` [Example 11, 3-{[1-oxo-7-(5H-pyrrolo[2,3-b]pyrazin-7-yl)-1,2-dihydropyrrolo[1,2-a]pyrazin-4-yl]methyl}benzoic acid] was under 10 nM.
